Consider one molecule from patent EP0965346A2, “Use of acetylated mannan derivatives for treating chronic respiratory diseases” (CARRINGTON LABORATORIES, INC., priority 1991, dated 1993).

Experiment [1] concerns HTLV-IIIB strain of HIV-1. The experiment is described as follows: Viability (MTT) of HIV-1-infected MT-2 cells, AZT-acemannan checkerboard. The format is cell-based. Here is the method:
Virus Strains - The HTLV-IIIB strain of HIV-1 was obtained from Dr. R. Gallo, NIH, Bethesda, Maryland. Viral stocks were prepared by propagating the virus in H9 lymphoid cells. A stock preparation of the virus was stored at -80°C. The 50% tissue culture infective dose (TCID50)/ml of cell-free virus pool stock was determined by end-point titration using MT-2 cells. Multiplicity of infection (MOI) was determined by the method of Reed and Muench.
Cell Lines - MT-2 cells were propagated in RPMI-1640 supplemented with 2 mM L-glutamine and 15% (v/v) fetal bovine serum. MT-2 cells naturally express CD4 on their surface and are thus good target cells for HIV-1 infection. In addition, they rapidly undergo cytolysis at low levels of virus replication.
Primary testing of antiviral activity - MT-2 cells were first treated with polybrene (2 mg/ml) for 30 min and then infected with HIV at a MOI of 0.03. After virus absorption, the cells were pelleted and resuspended in complete medium. […] Parallel assays were performed in triplicate, and drug cytotoxicity was measured at parallel concentrations in duplicate. […] On day 7 post-infection, cell viability was measured by the addition of MTT (450 µg/ml) to the test plates. […] Plates were read at a wavelength of 570 nm on a Vmax plate reader (Molecular Devices, Inc.). The percent change in cell viability was calculated using the following formula: % change in cell viability =((TI-TO)-(OI-TO))/((OO-TO)-(OI-TO))x 100 [formula] where: • TI is the optical density (OD) in treated, infected cells, • TO is the OD in treated, uninfected cells, • OI is the OD in untreated, infected cells, and • OO is the OD in untreated, uninfected cells.
Antiviral activity of acemannan-AZT combinations - Antiviral activity of acemannan in combination with AZT at various concentrations was evaluated using the microtiter infection assay described above. […] Combinations were evaluated in duplicate, and treated uninfected controls were used to determine drug cytotoxicity. Each compound was also evaluated alone at non-cytotoxic concentrations. […]

Experiment [2] relates to HIV. Put plainly: Phase II double-blind study of acemannan alone and with AZT. The format is in vivo. Particulars: ARC patients, 24 weeks. The protocol:
Forty-seven HIV+ patients (23 asymptomatic patients, 24 ARC patients) participated in a double-blind randomized phase II study of acemannan. The protocol was approved by the relevant ethical committees of the Hospital St. Pierre in Brussels, Belgium. In order to evaluate safety and tolerance, with or without concomitant AZT therapy, acemannan was administered during 24 weeks at a daily dose of 1000 mg (2 capsules of 125 mg, 4 times daily). The 23 asymptomatic patients were blindly allocated to receive either acemannan (11 patients, group 1) or placebo (12 patients, group 2). Of the 24 ARC patients who received 1000 mg AZT daily during the study, 12 patients (group 3) also received acemannan 1000 mg (2 capsules of 125 mg, 4 times daily) and 12 patients (group 4) also received placebo.

Take `Cc1cn([C@H]2C[C@H](N=[N+]=[N-])[C@@H](CO)O2)c(=O)[nH]c1=O` [AZT, Zidovudine]: the protection result is given as “neither of which was protective on its own” in experiment [1] (0.01 µg/ml AZT alone) and 65% in experiment [1] (0.32 µg/ml AZT alone). In addition, the maximum protection in experiment [1] (AZT alone, 0.03 to 0.32 µg/ml, MOI 0.03) was 60-67%. Further, the “patients who developed AIDS” value in experiment [2] (12 per group) is listed as 2 patients. Besides, the “mean Karnofsky score at exit” value in experiment [2] (AZT 1000 mg daily, acemannan 1000 mg daily, entry 84 (combination), 81 (AZT alone)) is recorded as 83. Moreover, the “mean CD4 at exit” value in experiment [2] (entry 263/mm3 (combination), 145/mm3 (AZT alone)) is 252 /mm3.
